Earlier results as cited in patent US10086029B2, “Fermented plant extracts, methods of production and uses” (KEFIPLANT INC., priority 2006, dated 2018).

Test system: xanthine oxidase
Settings: glycoside versus aglycone, literature study

For `C[C@@H]1O[C@@H](OC[C@H]2O[C@@H](Oc3c(-c4ccc(O)c(O)c4)oc4cc(O)cc(O)c4c3=O)[C@H](O)[C@@H](O)[C@@H]2O)[C@H](O)[C@H](O)[C@H]1O` [rutine], the “Activity as inhibitor of xanthine oxidase relative to quercetine” value is listed as “nearly ten times less active than quercetine”.
